6 molecules from article PMC4331153, “In Vitro Inhibitory and Cytotoxic Activity of MFM 501, a Novel Codonopsinine Derivative, against Methicillin-Resistant Staphylococcus aureus Clinical Isolates” (BioMed Research International, 2015) can be followed below.

Structures are written as SMILES. Values after ≈ are worked out from the molar mass of the structure shown. Like-named read-outs stand apart in the source and are kept apart here.

Assay type in all cases: cell-based
For one assay, the system named is S. aureus isolate U949. In words: MIC determination, broth microdilution, isolate U949. As to conditions: Staphylococcus aureus. For orientation: Dilution methods test growth across graded concentrations, often in twofold steps.
Assay [1] has as its system S. aureus ATCC 25923 (MSSA reference strain). In words: MIC determination, broth microdilution, ATCC 25923. The following applies: Staphylococcus aureus.
The test system of the next assay is S. aureus isolate N441. Description: MIC determination, broth microdilution, isolate N441. The following applies: Staphylococcus aureus.
For assay [2], the system named is S. aureus ATCC 33591 (MRSA reference strain). Description: MIC determination, broth microdilution, ATCC 33591. As to conditions: Staphylococcus aureus.
Assay [3] has as its system S. aureus isolates (MRSA and MSSA). Description: MIC determination, S. aureus isolates (MRSA and MSSA). As to conditions: Staphylococcus aureus, ATCC 25923 / ATCC 33591 / MRSA / MSSA; all four test isolates (N441, U949, ATCC 25923, ATCC 33591), preliminary evaluation.

What is called MIC is the lowest concentration that inhibits growth of the organism. With `CCCCCCC1C(C(=O)OCC)=C(O)C(=O)N1C` (stereo not drawn) [16e], the MIC is 125 µg/mL (≈ 464 µM) in the assay on S. aureus isolate U949 (isolate U949, read-out: MIC); 250 µg/mL (≈ 928 µM) in assay [1] (ATCC 25923, read-out: MIC); 125 µg/mL (≈ 464 µM) with S. aureus isolate N441 (isolate N441, read-out: MIC); 125 µg/mL (≈ 464 µM) in assay [2] (ATCC 33591, read-out: MIC); 125 to 250 µg/mL (≈ 464 to 928 µM) in assay [3].

Consider `CCOC(=O)C1=C(O)C(=O)N(Cc2ccccc2)C1c1ccc(OC)cc1` (stereo not drawn) [26e], for which the MIC is 250 µg/mL (≈ 680 µM) in the assay with S. aureus isolate U949 (isolate U949, read-out: MIC); 250 µg/mL (≈ 680 µM) in assay [1] (ATCC 25923, read-out: MIC); 125 µg/mL (≈ 340 µM) in the assay with S. aureus isolate N441 (isolate N441, read-out: MIC); 125 µg/mL (≈ 340 µM) in assay [2] (ATCC 33591, read-out: MIC); 125 to 250 µg/mL (≈ 340 to 680 µM) in assay [3].

As to `C=CCOc1ccc(C2C(C(=O)OCC)=C(O)C(=O)N2C)cc1` (stereo not drawn) [27e], the MIC in the assay on S. aureus isolate U949 (isolate U949, read-out: MIC) is over 1000 µg/mL; in assay [1] (ATCC 25923, read-out: MIC) it was over 1000 µg/mL; in the assay with S. aureus isolate N441 (isolate N441, read-out: MIC), over 1000 µg/mL; in assay [2] (ATCC 33591, read-out: MIC), over 1000 µg/mL.

With `Cc1onc(-c2ccccc2)c1C(=O)N[C@@H]1C(=O)N2[C@@H]1SC(C)(C)[C@@H]2C(=O)O` [Oxacillin, reference compound], the MIC with S. aureus isolate U949 (isolate U949, read-out: MIC) came to 500 µg/mL (≈ 1250 µM); in assay [1] (ATCC 25923, read-out: MIC), 0.24 µg/mL (≈ 0.598 µM); with S. aureus isolate N441 (isolate N441, read-out: MIC), 500 µg/mL (≈ 1250 µM); in assay [2] (ATCC 33591, read-out: MIC) it was 250 µg/mL (≈ 623 µM).

As for `CN[C@H](CC(C)C)C(=O)N[C@H]1C(=O)N[C@@H](CC(N)=O)C(=O)N[C@H]2C(=O)N[C@H]3C(=O)N[C@H](C(=O)N[C@H](C(=O)O)c4cc(O)cc(O)c4-c4cc3ccc4O)[C@H](O)c3ccc(c(Cl)c3)Oc3cc2cc(c3O[C@@H]2O[C@H](CO)[C@@H](O)[C@H](O)[C@H]2O[C@H]2C[C@](C)(N)[C@H](O)[C@H](C)O2)Oc2ccc(cc2Cl)[C@H]1O` [Vancomycin, reference compound], the MIC was found to be 1.56 µg/mL (≈ 1.08 µM) against S. aureus isolate U949, 0.78 µg/mL (≈ 0.538 µM) in assay [1], 1.56 µg/mL (≈ 1.08 µM) against S. aureus isolate N441 and 3.13 µg/mL (≈ 2.16 µM) in assay [2].

As to `CCOC(=O)C1=C(O)C(=O)N(C)C1c1ccc(C)cc1` (stereo not drawn) [compound 19e], the MIC with S. aureus isolate U949 (isolate U949, read-out: MIC) is 500 µg/mL (≈ 1820 µM); in assay [1] (ATCC 25923, read-out: MIC) it was 1000 µg/mL (≈ 3630 µM); in the assay with S. aureus isolate N441 (isolate N441, read-out: MIC), 500 µg/mL (≈ 1820 µM); in assay [2] (ATCC 33591, read-out: MIC), 500 µg/mL (≈ 1820 µM); in assay [3], 500 to 1000 µg/mL (≈ 1820 to 3630 µM).
